Data reported in US20230210870A1, “METHODS OF TREATING FEMALE HEALTH CONDITIONS RELATED TO SEX HORMONES” (priority 2020, published 2023).

Tests used:
α1β1γ2 GABAA receptor = molecular target: T1, α1β1γ2 GABAA receptor (Homo sapiens, UniProt P14867+P18505); assay: FLIPR modulation of GABA response in cells expressing GABAA receptor subtype; format: cell-based; conditions: in presence of GABA, — = value not measurable
T1 construct: expressed in transfected cells
Procedure: (§1) Cells expressing the indicated GABAA receptor subtype were exposed to gamma-aminobutyric acid in the presence of varying concentrations of either CV-10155 or SPNC-019, calcium flux was measured using a fluorometric imaging plate reader (FLIPR), and EC50 values for compounds were determined.

α1β2γ2 GABAA receptor [1] = molecular target: T2, α1β2γ2 GABAA receptor (Homo sapiens, UniProt P14867+P47870); assay: as above; format: cell-based; conditions: in presence of GABA, — = value not measurable
T2 construct: expressed in transfected cells
Procedure: as §1

α1β3γ2 GABAA receptor = molecular target: T3, α1β3γ2 GABAA receptor (Homo sapiens, UniProt P14867+P28472); assay: as above; format: cell-based; conditions: in presence of GABA, — = value not measurable
T3 construct: expressed in transfected cells
Procedure: as §1

α2β1γ2 GABAA receptor = molecular target: T4, α2β1γ2 GABAA receptor (Homo sapiens, UniProt P18505+P47869); assay: as above; format: cell-based; conditions: in presence of GABA, — = value not measurable
T4 construct: expressed in transfected cells
Procedure: as §1

α2β2γ2 GABAA receptor = molecular target: T5, α2β2γ2 GABAA receptor (Homo sapiens, UniProt P47869+P47870); assay: as above; format: cell-based; conditions: in presence of GABA, — = value not measurable
T5 construct: expressed in transfected cells
Procedure: as §1

α2β3γ2 GABAA receptor = molecular target: T6, α2β3γ2 GABAA receptor (Homo sapiens, UniProt P28472+P47869); assay: as above; format: cell-based; conditions: in presence of GABA, — = value not measurable
T6 construct: expressed in transfected cells
Procedure: as §1

α3β1γ2 GABAA receptor = molecular target: T7, α3β1γ2 GABAA receptor (Homo sapiens, UniProt P18505+P34903); assay: as above; format: cell-based; conditions: in presence of GABA, — = value not measurable
T7 construct: expressed in transfected cells
Procedure: as §1

α3β2γ2 GABAA receptor = molecular target: T8, α3β2γ2 GABAA receptor (Homo sapiens, UniProt P34903+P47870); assay: as above; format: cell-based; conditions: in presence of GABA, — = value not measurable
T8 construct: expressed in transfected cells
Procedure: as §1

α3β3γ2 GABAA receptor = molecular target: T9, α3β3γ2 GABAA receptor (Homo sapiens, UniProt P28472+P34903); assay: as above; format: cell-based; conditions: in presence of GABA, — = value not measurable
T9 construct: expressed in transfected cells
Procedure: as §1

α4β1γ2 GABAA receptor = molecular target: T10, α4β1γ2 GABAA receptor (Homo sapiens, UniProt P18505+P48169); assay: as above; format: cell-based; conditions: in presence of GABA, — = value not measurable
T10 construct: expressed in transfected cells
Procedure: as §1

α4β3γ2 GABAA receptor = molecular target: T11, α4β3γ2 GABAA receptor (Homo sapiens, UniProt P28472+P48169); assay: as above; format: cell-based; conditions: in presence of GABA, — = value not measurable
T11 construct: expressed in transfected cells
Procedure: as §1

α5β1γ2 GABAA receptor = molecular target: T12, α5β1γ2 GABAA receptor (Homo sapiens, UniProt P18505+P31644); assay: as above; format: cell-based; conditions: in presence of GABA, — = value not measurable
T12 construct: expressed in transfected cells
Procedure: as §1

α5β2γ2 GABAA receptor = molecular target: T13, α5β2γ2 GABAA receptor (Homo sapiens, UniProt P31644+P47870); assay: as above; format: cell-based; conditions: in presence of GABA, — = value not measurable
T13 construct: expressed in transfected cells
Procedure: as §1

α5β3γ2 GABAA receptor = molecular target: T14, α5β3γ2 GABAA receptor (Homo sapiens, UniProt P28472+P31644); assay: as above; format: cell-based; conditions: in presence of GABA, — = value not measurable
T14 construct: expressed in transfected cells
Procedure: as §1

α6β1γ2 GABAA receptor = molecular target: T15, α6β1γ2 GABAA receptor (Homo sapiens, UniProt P18505+Q16445); assay: as above; format: cell-based; conditions: in presence of GABA, — = value not measurable
T15 construct: expressed in transfected cells
Procedure: as §1

α6β2γ2 GABAA receptor = molecular target: T16, α6β2γ2 GABAA receptor (Homo sapiens, UniProt P47870+Q16445); assay: as above; format: cell-based; conditions: in presence of GABA, — = value not measurable
T16 construct: expressed in transfected cells
Procedure: as §1

α6β3γ2 GABAA receptor = molecular target: T17, α6β3γ2 GABAA receptor (Homo sapiens, UniProt P28472+Q16445); assay: as above; format: cell-based; conditions: in presence of GABA, — = value not measurable
T17 construct: expressed in transfected cells
Procedure: as §1

GABAA receptor subtypes = assay: FLIPR panel of 18 GABAA receptor subtypes; format: cell-based; conditions: for modulating activity across GABAA receptor subtypes tested: 18 subtypes, FLIPR
Procedure: as §1
The results further indicate that the isomeric purity of compositions containing compounds of Formula (I) greatly impacts the utility of such compositions as therapeutic agents.

α4β3δ GABAA receptor [2] = molecular target: T18, α4β3δ GABAA receptor (Homo sapiens, UniProt P28472+P48169); assay: FLIPR modulation of GABA response in cells expressing GABAA receptor subtype; format: cell-based; set-up: expressed in transfected cells; conditions: in presence of GABA, — = value not measurable
Procedure: as §1

[3] = molecular target: picrotoxin binding site of GABAA receptors; conditions: membranes from cortices of rat brains; Table 1 of WO 2016/061527; read-out: IC50 in the TBPS displacement assay; cited from earlier work
α1β2γ2 GABAA receptor [4] = molecular target: T2, α1β2γ2 GABAA receptor; conditions: 10 μM steroid, GABA 2 μM (EC20), LTK cells, Table 2 of WO 2016/061527; cited from earlier work
α4β3δ GABAA receptor [5] = molecular target: T18, α4β3δ GABAA receptor; set-up: expressed in transfected cells; host or cells: CHO cells (transient); conditions: 10 μM steroid, GABA 2 μM (EC20), CHO cells, Table 2 of WO 2016/061527; cited from earlier work

T17 sequence (Q16445 20-453): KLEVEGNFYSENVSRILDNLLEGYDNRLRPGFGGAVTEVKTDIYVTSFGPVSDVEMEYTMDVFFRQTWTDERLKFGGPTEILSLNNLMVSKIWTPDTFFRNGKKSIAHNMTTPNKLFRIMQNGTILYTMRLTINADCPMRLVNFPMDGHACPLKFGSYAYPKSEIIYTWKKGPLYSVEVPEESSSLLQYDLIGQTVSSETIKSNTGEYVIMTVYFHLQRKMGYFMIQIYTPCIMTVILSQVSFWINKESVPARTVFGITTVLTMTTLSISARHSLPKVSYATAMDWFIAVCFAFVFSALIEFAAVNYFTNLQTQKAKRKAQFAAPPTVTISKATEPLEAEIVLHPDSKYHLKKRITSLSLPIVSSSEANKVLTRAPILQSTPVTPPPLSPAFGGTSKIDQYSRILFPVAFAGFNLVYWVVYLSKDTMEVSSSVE
T17 sequence (P28472 26-473): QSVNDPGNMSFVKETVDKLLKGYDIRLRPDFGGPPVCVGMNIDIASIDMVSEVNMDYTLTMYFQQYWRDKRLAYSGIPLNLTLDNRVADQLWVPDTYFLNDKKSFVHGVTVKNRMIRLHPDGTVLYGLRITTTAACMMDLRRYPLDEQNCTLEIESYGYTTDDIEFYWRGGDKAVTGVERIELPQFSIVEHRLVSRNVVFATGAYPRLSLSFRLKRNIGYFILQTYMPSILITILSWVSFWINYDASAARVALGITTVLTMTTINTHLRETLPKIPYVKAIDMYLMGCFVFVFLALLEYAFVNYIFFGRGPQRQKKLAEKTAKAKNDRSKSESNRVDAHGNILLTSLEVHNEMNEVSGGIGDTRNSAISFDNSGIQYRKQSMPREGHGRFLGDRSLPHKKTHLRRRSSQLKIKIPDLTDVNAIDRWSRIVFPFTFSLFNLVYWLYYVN
T17 sequence (P18507 40-475 partner): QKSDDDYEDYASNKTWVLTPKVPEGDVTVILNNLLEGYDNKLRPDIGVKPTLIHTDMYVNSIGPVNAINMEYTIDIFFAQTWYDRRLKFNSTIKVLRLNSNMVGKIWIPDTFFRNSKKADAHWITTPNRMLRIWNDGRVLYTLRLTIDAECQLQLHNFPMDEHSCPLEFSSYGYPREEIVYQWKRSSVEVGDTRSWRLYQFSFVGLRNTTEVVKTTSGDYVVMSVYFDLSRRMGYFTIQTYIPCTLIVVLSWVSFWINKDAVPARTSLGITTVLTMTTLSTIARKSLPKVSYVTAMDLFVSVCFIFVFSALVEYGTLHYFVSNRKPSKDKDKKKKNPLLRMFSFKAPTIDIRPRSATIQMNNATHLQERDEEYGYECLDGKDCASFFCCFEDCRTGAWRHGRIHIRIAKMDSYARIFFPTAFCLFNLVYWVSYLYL
T2 sequence (P14867 28-456): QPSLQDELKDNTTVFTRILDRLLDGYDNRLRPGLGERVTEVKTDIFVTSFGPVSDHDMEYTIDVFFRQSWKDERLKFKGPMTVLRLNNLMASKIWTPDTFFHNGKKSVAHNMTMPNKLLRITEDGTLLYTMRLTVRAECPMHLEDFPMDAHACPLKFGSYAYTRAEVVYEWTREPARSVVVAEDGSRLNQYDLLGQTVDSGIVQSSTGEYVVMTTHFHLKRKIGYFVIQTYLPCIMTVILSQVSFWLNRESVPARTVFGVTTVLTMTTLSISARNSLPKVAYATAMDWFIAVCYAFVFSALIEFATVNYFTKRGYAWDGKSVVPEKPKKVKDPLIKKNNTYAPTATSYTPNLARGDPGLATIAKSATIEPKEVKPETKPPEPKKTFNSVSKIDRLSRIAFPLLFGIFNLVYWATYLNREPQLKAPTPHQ
T2 sequence (P47870 25-512 limits assumed): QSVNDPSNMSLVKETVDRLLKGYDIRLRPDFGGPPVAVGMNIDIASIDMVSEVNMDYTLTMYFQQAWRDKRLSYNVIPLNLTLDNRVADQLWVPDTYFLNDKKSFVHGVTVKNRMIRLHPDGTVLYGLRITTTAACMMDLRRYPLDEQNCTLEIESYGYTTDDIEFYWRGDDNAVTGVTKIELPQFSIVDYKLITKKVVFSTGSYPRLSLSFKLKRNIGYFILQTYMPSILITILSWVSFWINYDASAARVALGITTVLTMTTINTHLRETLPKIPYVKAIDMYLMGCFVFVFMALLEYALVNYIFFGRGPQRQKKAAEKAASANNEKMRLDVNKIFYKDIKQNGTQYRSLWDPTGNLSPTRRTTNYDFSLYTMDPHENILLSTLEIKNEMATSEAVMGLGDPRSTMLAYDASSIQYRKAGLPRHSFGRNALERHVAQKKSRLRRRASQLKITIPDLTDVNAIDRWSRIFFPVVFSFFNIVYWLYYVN
T2 sequence (P18507 40-475 partner): as the sequence (P18507 40-475 partner) above
T18 sequence (P48169 36-554): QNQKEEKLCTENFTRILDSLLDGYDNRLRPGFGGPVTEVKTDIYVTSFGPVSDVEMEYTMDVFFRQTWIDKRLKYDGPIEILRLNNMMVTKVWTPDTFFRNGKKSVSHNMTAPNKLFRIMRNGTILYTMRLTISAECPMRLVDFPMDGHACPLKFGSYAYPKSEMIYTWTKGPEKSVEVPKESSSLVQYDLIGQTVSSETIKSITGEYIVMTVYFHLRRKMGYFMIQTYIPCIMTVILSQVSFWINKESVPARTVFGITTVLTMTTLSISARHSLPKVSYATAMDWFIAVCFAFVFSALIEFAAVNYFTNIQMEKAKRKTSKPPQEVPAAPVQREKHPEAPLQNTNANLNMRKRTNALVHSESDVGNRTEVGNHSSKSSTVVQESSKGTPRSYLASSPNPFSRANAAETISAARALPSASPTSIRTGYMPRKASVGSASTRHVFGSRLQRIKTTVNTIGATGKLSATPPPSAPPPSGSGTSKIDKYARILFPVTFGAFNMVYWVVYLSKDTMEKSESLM
T18 sequence (P28472 26-473): as the sequence (P28472 26-473) above
T18 sequence (O14764 25-452 partner): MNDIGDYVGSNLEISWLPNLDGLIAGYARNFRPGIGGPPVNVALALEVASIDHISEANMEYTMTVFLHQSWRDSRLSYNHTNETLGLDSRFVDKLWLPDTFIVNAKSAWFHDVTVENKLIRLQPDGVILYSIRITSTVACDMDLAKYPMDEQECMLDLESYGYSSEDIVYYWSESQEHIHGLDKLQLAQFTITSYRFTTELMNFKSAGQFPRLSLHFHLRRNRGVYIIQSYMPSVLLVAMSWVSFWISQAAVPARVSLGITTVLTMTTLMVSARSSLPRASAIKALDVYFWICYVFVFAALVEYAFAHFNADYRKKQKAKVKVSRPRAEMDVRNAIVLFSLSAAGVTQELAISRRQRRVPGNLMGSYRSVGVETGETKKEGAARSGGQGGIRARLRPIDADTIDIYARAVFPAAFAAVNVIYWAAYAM
T14 sequence (P31644 32-462): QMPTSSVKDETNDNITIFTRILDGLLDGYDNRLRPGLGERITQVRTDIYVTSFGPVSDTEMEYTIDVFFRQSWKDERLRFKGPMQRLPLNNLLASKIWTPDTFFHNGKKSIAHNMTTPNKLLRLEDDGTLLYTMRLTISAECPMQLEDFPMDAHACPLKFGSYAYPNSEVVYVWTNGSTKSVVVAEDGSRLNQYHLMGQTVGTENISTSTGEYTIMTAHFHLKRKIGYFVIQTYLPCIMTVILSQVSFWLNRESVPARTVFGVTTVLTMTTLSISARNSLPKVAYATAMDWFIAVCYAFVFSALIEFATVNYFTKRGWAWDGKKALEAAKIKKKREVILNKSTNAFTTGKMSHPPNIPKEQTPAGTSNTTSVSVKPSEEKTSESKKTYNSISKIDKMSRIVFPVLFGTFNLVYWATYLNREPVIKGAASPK
T14 sequence (P28472 26-473): as the sequence (P28472 26-473) above
T14 sequence (P18507 40-475 partner): as the sequence (P18507 40-475 partner) above
T13 sequence (P31644 32-462): as the sequence (P31644 32-462) above
T13 sequence (P47870 25-512 limits assumed): as the sequence (P47870 25-512 limits assumed) above
T13 sequence (P18507 40-475 partner): as the sequence (P18507 40-475 partner) above
T4 sequence (P47869 29-451): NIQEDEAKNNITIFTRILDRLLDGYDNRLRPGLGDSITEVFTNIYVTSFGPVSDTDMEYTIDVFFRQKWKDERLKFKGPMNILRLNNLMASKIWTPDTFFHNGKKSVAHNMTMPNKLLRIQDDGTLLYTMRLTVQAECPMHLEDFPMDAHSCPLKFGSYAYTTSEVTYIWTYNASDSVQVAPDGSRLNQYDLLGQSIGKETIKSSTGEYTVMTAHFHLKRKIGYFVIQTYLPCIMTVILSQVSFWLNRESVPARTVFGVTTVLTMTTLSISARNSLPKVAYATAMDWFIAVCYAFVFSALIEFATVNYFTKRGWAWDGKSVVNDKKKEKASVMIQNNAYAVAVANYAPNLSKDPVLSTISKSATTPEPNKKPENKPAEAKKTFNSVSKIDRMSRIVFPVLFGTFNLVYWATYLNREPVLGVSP
T4 sequence (P18505 26-474): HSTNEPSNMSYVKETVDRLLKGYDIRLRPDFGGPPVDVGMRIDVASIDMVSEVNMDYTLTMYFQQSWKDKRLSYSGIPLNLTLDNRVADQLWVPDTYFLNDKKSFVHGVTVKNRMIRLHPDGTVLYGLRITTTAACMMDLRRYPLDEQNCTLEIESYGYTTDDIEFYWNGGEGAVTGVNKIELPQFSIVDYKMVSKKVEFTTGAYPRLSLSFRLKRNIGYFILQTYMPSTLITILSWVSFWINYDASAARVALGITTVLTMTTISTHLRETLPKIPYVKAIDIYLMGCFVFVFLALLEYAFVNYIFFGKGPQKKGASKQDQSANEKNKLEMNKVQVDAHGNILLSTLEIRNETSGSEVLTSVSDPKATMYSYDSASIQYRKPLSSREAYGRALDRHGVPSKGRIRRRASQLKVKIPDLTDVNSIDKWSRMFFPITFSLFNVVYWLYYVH
T4 sequence (P18507 40-475 partner): as the sequence (P18507 40-475 partner) above

Structure (SMILES): C[C@@]1(O)CC[C@@]2(C)[C@@H](CC[C@@H]3[C@@H]2CC[C@]2(C)[C@@H](C(=O)Cn4cc(C#N)cn4)CC[C@@H]32)C1 [CV-10155, 1-[2-[(3R,5S,8R,9S,10S,13S,14S,17S)-3-hydroxy-3,10,13-trimethyl-1,2,4,5,6,7,8,9,11,12,14,15,16,17-tetradecahydrocyclopenta[a]phenanthren-17-yl]-2-oxoethyl]pyrazole-4-carbonitrile]
- EC50 (α1β1γ2 GABAA receptor): 521 nM
- EC50 (α1β2γ2 GABAA receptor [1]): 839 nM
- EC50 (α1β3γ2 GABAA receptor): 520 nM
- EC50 (α2β1γ2 GABAA receptor): 253 nM
- EC50 (α2β2γ2 GABAA receptor): 213 nM
- EC50 (α2β3γ2 GABAA receptor): 296 nM
- EC50 (α3β1γ2 GABAA receptor): 946 nM
- EC50 (α3β2γ2 GABAA receptor): 1820 nM
- EC50 (α3β3γ2 GABAA receptor): 273 nM
- EC50 (α4β1γ2 GABAA receptor): 204 nM
- EC50 (α4β3γ2 GABAA receptor): 1330 nM
- EC50 (α5β1γ2 GABAA receptor): 762 nM
- EC50 (α5β2γ2 GABAA receptor): 359 nM
- EC50 (α5β3γ2 GABAA receptor): 1300 nM
- EC50 (α6β1γ2 GABAA receptor): 359 nM
- EC50 (α6β2γ2 GABAA receptor): 1100 nM
- EC50 (α6β3γ2 GABAA receptor): 245 nM
- modulating activity across GABAA receptor subtypes tested (GABAA receptor subtypes): some level of positive allosteric modulating activity in all of the GABAA receptor subtypes tested
- activity on α4β3δ versus α1β2γ2 GABAA receptors (GABAA receptor subtypes; comparison of Example 1 data): substantially more active on α4β3δ GABAA receptors than on α1β2γ2 GABAA receptors
- EC50 (α4β3δ GABAA receptor [2]): 106 nM

Structure (SMILES): C[C@@]1(O)CC[C@@]2(C)[C@H](CC[C@@H]3[C@@H]2CC[C@]2(C)[C@@H](C(=O)Cn4cc(C#N)cn4)CC[C@@H]32)C1 [Compound 10]
- IC50 [3]: < 10 nM

Structure (SMILES): C[C@@]1(O)CC[C@@]2(C)[C@@H](CC[C@@H]3[C@@H]2CC[C@]2(C)[C@@H](C(=O)Cn4ccc(C#N)n4)CC[C@@H]32)C1 [Compound 121]
- IC50 [3]: 10 to 50 nM
- efficacy (relative potentiation of GABA-mediated conductance) (α1β2γ2 GABAA receptor [4]): > 500%
- efficacy (relative potentiation of GABA-mediated conductance) (α4β3δ GABAA receptor [5]): > 500%

Structure (SMILES): C[C@]1(O)CC[C@@]2(C)[C@@H](CC[C@@H]3[C@@H]2CC[C@]2(C)[C@@H](C(=O)Cn4cc(C#N)cn4)CC[C@@H]32)C1 [SPNC-019, reference compound]
- EC50 (α5β2γ2 GABAA receptor): 1200 nM
- EC50 (α5β3γ2 GABAA receptor): 1810 nM
- EC50 (α6β3γ2 GABAA receptor): 1770 nM
- modulating activity across GABAA receptor subtypes tested (GABAA receptor subtypes): no modulating activity in 15 of the 18 GABAA receptor subtypes tested
